# ChEMBL document CHEMBL4376829, “Discovery and biological evaluation of vinylsulfonamide derivatives as highly potent, covalent TEAD autopalmitoylation inhibitors” (Eur J Med Chem, 2019)
# Activity calls are given as the source filed them. The rule behind the calls is not given here.
# How the values were obtained:
# [1] = target: T1, Transcriptional enhancer factor TEF-3 (Homo sapiens, UniProt Q15561); experiment: Inhibition of N-terminal His6 tagged human TEAD4-YBD (217 to 434 residues) expressed in Escherichia coli C43 (DE3) cells assessed as reduction in autopalmitoylation preincubated for 2 hrs followed by palmitoyl alkyne-coenzyme A addition and measured after 30 mins by immunoblot analysis
# T1 sequence (Q15561 whole entry, the tested form may be a part): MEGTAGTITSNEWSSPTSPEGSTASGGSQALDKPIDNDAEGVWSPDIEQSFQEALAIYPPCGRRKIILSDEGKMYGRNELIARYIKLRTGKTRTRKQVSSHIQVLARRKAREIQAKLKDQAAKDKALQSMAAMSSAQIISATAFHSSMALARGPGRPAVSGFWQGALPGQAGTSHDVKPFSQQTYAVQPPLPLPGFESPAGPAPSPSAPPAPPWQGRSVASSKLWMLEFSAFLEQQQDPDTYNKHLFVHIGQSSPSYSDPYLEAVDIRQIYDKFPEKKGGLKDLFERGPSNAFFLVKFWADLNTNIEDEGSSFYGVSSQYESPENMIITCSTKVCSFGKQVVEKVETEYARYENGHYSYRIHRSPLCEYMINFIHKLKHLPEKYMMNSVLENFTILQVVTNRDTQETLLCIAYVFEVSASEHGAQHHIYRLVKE
# [2] = target: T1, Transcriptional enhancer factor TEF-3; experiment: Binding affinity to N-terminal His6-tagged human TEAD4-YBD (217 to 434 residues) expressed in Escherichia coli C43 (DE3) cells assessed as change in melting temperature at 1:4 ratio by SYPRO-dye based thermal shift assay
# [3] = tested on: Transcriptional enhancer factor TEF-3 (Homo sapiens), Q15561 [C330A]; experiment: Binding affinity to TEAD4-YBD C330A mutant (unknown origin) assessed as change in melting temperature by SYPRO-dye based thermal shift assay
# Transcriptional enhancer factor TEF-3 (Homo sapiens), Q15561 [C330A], sequence (Q15561 whole entry C330A, the tested form may be a part): as the sequence (Q15561 whole entry, the tested form may be a part) above, with C330A counted along it
# [4] = target: T1, Transcriptional enhancer factor TEF-3; experiment: Inhibition of N-terminal His6-tagged human TEAD4-YBD (217 to 434 residues) expressed in Escherichia coli C43 (DE3) cells at 50 to 1000 nM preincubated for 2 hrs followed by palmitoyl alkyne-coenzyme A addition and measured after 30 mins in presence of BSA by immunoblot analysis
# [5] = target: Fatty acid-binding protein 5 (Homo sapiens) (UniProt Q01469); experiment: Binding affinity to FABP5 (unknown origin) at 1:1 ratio by fluorescence based thermal shift assay
# [6] = target: Insulin receptor-related protein (Homo sapiens) (UniProt P14616); experiment: Inhibition of recombinant human IRR (943 to 1266 residues) at 10 uM using myelin basic protein as substrate measured after 40 mins in presence of [gamma33P]ATP by scintillation counting method relative to control
# Insulin receptor-related protein (Homo sapiens), sequence (P14616 27-742 limits assumed): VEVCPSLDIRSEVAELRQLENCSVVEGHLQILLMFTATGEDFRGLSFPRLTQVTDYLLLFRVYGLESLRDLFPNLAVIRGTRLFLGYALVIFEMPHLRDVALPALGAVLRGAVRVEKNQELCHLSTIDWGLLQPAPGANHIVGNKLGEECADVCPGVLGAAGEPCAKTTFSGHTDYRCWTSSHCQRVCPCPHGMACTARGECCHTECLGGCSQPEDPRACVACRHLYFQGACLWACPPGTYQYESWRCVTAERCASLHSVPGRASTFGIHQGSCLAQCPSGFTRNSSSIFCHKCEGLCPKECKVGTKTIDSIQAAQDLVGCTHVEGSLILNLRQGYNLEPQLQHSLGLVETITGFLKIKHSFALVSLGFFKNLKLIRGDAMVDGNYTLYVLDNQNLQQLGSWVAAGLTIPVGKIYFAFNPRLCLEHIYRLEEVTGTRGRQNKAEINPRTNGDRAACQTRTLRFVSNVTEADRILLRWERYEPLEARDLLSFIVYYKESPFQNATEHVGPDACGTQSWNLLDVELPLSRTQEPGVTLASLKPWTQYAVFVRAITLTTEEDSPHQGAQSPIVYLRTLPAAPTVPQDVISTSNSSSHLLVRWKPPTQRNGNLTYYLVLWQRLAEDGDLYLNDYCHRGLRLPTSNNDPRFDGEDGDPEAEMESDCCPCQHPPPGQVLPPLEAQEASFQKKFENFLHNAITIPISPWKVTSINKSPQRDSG
# Insulin receptor-related protein (Homo sapiens), sequence (P14616 747-1297 limits assumed): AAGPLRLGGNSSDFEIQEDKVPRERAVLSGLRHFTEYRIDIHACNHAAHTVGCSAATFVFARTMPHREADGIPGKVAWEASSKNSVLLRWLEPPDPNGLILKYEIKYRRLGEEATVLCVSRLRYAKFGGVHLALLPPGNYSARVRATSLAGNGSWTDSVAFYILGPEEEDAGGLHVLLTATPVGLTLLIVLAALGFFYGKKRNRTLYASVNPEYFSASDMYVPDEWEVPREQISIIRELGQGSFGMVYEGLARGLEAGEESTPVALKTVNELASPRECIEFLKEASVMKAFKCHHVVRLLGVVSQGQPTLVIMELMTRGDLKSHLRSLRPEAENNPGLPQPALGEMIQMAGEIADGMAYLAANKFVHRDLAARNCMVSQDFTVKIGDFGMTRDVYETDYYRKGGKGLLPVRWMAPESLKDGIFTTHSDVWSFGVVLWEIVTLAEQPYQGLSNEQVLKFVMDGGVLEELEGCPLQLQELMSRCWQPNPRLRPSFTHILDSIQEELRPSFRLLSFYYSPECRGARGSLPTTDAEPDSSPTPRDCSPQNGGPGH
# [7] = target: Tyrosine-protein kinase SYK (Homo sapiens) (UniProt P43405); experiment: Inhibition of full length recombinant human Syk at 10 uM using poly(Glu, Tyr) 4:1 as substrate after 40 mins in presence of [gamma33P]ATP by scintillation counting method relative to control
# [8] = target: SRSF protein kinase 1 (Homo sapiens) (UniProt Q96SB4); experiment: Inhibition of recombinant human SRPK1 (2 to end residues) at 10 uM using RSRSRSRSRSRSRSR as substrate measured after 40 mins in presence of [gamma33P]ATP by scintillation counting method relative to control
# [9] = target: Proto-oncogene tyrosine-protein kinase Src (Homo sapiens) (UniProt P12931); experiment: Inhibition of recombinant human Src (1 to 530 residues) at 10 uM using GGEEEEYFELVKKKK as substrate measured after 40 mins in presence of [gamma33P]ATP by scintillation counting method relative to control
# [10] = target: Ribosomal protein S6 kinase alpha-2 (Homo sapiens) (UniProt Q15349); experiment: Inhibition of full length recombinant human Rsk3 at 10 uM using KKKNRTLSVA as substrate after 40 mins in presence of [gamma33P]ATP by scintillation counting method relative to control
# Ribosomal protein S6 kinase alpha-2 (Homo sapiens), sequence (Q15349 whole entry): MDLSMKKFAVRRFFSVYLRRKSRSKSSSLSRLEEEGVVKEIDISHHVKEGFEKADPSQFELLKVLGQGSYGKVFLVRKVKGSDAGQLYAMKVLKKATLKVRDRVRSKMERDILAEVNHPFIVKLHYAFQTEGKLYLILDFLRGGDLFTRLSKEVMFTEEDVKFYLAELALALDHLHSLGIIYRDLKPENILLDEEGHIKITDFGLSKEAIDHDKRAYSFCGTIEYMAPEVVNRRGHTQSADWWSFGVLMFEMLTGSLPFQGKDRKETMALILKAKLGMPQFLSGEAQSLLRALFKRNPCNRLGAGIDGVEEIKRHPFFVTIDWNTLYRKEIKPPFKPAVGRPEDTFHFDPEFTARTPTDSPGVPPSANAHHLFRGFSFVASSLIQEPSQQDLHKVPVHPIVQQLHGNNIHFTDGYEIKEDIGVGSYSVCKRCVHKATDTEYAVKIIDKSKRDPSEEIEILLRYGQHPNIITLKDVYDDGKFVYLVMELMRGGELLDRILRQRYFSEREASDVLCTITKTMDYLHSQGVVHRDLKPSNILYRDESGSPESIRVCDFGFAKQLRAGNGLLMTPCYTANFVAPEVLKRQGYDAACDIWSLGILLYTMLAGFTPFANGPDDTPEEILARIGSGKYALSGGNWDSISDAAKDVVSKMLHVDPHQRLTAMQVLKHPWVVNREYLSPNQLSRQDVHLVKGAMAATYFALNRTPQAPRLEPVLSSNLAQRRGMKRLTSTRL
# [11] = target: Ribosomal protein S6 kinase alpha-3 (Homo sapiens) (UniProt P51812); experiment: Inhibition of full length recombinant human Rsk2 (2 to end residues) at 10 uM using KKKNRTLSVA as substrate after 40 mins in presence of [gamma33P]ATP by scintillation counting method relative to control
# Ribosomal protein S6 kinase alpha-3 (Homo sapiens), sequence (P51812 whole entry): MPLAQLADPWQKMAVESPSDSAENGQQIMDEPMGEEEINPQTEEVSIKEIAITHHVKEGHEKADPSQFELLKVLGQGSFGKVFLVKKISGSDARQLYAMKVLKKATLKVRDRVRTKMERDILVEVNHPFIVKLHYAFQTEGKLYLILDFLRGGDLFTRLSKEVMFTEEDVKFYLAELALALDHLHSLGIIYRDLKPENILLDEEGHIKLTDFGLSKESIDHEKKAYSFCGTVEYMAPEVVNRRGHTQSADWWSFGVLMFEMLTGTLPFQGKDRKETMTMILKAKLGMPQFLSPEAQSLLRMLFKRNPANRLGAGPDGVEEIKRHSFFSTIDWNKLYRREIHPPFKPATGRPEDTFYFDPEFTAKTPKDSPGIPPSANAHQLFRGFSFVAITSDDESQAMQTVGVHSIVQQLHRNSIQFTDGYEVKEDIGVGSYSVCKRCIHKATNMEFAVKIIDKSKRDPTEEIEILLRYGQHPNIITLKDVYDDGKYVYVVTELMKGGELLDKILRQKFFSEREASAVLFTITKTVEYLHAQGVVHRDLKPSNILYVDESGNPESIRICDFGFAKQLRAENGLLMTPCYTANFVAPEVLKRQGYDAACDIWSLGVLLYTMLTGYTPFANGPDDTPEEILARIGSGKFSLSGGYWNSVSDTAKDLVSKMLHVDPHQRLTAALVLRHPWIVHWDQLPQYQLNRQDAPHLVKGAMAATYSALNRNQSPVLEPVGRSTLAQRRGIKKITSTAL
# [12] = target: Serine/threonine-protein kinase PLK1 (Homo sapiens) (UniProt P53350); experiment: Inhibition of full length recombinant human Plk1 at 10 uM using casein as substrate after 40 mins in presence of [gamma33P]ATP by scintillation counting method relative to control
# [13] = target: Inhibitor of nuclear factor kappa-B kinase subunit epsilon (Homo sapiens) (UniProt Q14164); experiment: Inhibition of full length recombinant human IKKepsilon at 10 uM using casein as substrate after 40 mins in presence of [gamma33P]ATP by scintillation counting method relative to control
# [14] = target: Protein kinase C alpha type (Homo sapiens) (UniProt P17252); experiment: Inhibition of full-length recombinant human PKCalpha at 10 uM using histone H1 as substrate after 40 mins by in presence of [gamma33P]ATP by scintillation counting method relative to control
# Homo sapiens = organism: Homo sapiens; experiment: Inhibition of full-length recombinant human PKBalpha S478G mutant at 10 uM using GRPRTSSFAEGKK as substrate after 40 mins by in presence of [gamma33P]ATP by scintillation counting method relative to control
# [15] = target: Tyrosine-protein kinase Fer (Homo sapiens) (UniProt P16591); experiment: Inhibition of recombinant human FER (541 to end residues) at 10 uM using KKKSPGEYVNIEFG as substrate measured after 40 mins in presence of [gamma33P]ATP by scintillation counting method relative to control
# [16] = target: Serine/threonine-protein kinase 17B (Homo sapiens) (UniProt O94768); experiment: Inhibition of full-length recombinant human DRAK2 at 10 uM using KKRPQRRYSNVF as substrate after 120 mins by in presence of [gamma33P]ATP by scintillation counting method relative to control
# [17] = target: Death-associated protein kinase 1 (Homo sapiens) (UniProt P53355); experiment: Inhibition of recombinant human DAPK1 (1 to 296 residues) at 10 uM using KKLNRTLSFAEPG as substrate after 40 mins by in presence of [gamma33P]ATP by scintillation counting method relative to control
# [18] = target: Serine/threonine-protein kinase NIM1 (Homo sapiens) (UniProt Q8IY84); experiment: Inhibition of recombinant human full length NIM1 at 10 uM using KKKVSRSGLYRSPSMPENLNRPR as substrate incubated for 40 mins in presence of [gamma-33P]-ATP by scintillation counting method relative to control
# [19] = target: Serine/threonine-protein kinase Nek2 (Homo sapiens) (UniProt P51955); experiment: Inhibition of recombinant human full length NEK2 at 10 uM using myelin basic protein as substrate incubated for 40 mins in presence of [gamma-33P]-ATP by scintillation counting method relative to control
# Serine/threonine-protein kinase Nek2 (Homo sapiens), sequence (P51955 whole entry): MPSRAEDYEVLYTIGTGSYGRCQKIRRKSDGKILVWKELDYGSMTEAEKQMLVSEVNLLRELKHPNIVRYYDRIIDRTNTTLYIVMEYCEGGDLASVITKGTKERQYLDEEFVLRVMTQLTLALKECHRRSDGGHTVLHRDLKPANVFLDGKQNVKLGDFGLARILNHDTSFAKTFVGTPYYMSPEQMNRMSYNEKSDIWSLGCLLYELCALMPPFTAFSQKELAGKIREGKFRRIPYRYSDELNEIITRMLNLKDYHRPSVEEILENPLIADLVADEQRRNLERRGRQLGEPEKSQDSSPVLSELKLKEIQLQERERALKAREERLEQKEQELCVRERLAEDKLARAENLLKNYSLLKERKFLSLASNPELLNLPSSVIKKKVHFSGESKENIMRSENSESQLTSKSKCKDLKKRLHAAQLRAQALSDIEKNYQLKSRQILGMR
# [20] = target: Cyclin-dependent kinase-like 2 (Homo sapiens) (UniProt Q92772); experiment: Inhibition of human CDKL2 at 10 uM by radiometric method relative to control
# Cyclin-dependent kinase-like 2 (Homo sapiens), sequence (Q92772 whole entry): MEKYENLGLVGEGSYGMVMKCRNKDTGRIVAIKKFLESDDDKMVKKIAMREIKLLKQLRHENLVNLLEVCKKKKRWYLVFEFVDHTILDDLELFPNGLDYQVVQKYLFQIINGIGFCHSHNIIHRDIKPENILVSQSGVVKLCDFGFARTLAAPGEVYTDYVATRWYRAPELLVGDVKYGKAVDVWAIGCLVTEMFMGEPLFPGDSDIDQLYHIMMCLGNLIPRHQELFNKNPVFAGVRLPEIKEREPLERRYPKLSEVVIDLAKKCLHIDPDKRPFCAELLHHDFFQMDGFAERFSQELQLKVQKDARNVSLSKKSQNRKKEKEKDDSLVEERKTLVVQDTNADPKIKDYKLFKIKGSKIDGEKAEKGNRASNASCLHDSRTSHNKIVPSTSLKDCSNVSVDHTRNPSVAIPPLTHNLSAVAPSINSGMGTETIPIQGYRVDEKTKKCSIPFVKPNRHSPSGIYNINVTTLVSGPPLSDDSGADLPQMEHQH
# [21] = target: MAP kinase-interacting serine/threonine-protein kinase 2 (Homo sapiens) (UniProt Q9HBH9); experiment: Inhibition of recombinant full-length human MNK2 at 10 uM using myelin basic protein as substrate measured after 40 mins in presence of [gamma33P]ATP by scintillation counting analysis relative to control
# [22] = tested on: Angiopoietin-1 receptor (Homo sapiens), Q02763 [Q939H,Q940H]; experiment: Inhibition of human Tie2 Q939H/Q940H mutant (771 to end residues) at 10 uM using poly(Glu, Tyr) 4:1 as substrate measured after 40 mins in presence of [gamma33P]ATP by scintillation counting method relative to control
# [23] = target: Histone acetyltransferase KAT2A (Homo sapiens) (UniProt Q92830); experiment: Inhibition of human GCN5 at 10 uM after 1 hr by radioisotope-based assay relative to control
# Histone acetyltransferase KAT2A (Homo sapiens), sequence (Q92830 2-837 limits assumed): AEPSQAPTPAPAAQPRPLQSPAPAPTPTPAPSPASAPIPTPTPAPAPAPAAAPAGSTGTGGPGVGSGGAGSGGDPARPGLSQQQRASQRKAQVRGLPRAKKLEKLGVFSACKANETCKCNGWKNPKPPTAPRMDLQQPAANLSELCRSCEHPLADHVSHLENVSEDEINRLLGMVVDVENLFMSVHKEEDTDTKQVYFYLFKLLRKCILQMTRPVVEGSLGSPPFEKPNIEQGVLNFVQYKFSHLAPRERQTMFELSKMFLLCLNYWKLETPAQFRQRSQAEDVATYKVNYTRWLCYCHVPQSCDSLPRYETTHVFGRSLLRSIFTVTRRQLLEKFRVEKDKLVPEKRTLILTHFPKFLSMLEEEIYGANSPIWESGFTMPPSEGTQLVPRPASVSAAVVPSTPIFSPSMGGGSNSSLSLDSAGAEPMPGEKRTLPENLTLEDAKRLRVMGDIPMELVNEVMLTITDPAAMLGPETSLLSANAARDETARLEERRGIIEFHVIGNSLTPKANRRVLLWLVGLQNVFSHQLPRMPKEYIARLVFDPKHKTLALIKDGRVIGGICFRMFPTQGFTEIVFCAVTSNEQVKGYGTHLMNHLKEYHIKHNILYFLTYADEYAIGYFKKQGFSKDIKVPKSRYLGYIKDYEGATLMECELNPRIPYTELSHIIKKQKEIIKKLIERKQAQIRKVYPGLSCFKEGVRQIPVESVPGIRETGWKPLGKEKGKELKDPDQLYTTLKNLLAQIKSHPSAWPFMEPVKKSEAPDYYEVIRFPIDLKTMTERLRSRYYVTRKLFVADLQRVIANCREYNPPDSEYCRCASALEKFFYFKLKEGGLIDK
compound,measurement,setting,value
C=CS(=O)(=O)Nc1ccc(Cc2ccc3ccccc3c2)cc1,IC50,[1],197 nM
same,ΔTm,[2],7.5 °C
same,ΔTm,[3],6.4 °C
same,inhibition,[4],Active
same,Activity,[5],Active
same,inhibition,[6],13%
same,inhibition,[7],-4%
same,inhibition,[8],8%
same,inhibition,[9],17%
same,inhibition,[10],9%
same,inhibition,[11],-3%
same,inhibition,[12],-10%
same,inhibition,[13],5%
same,inhibition,[14],3%
same,inhibition,Homo sapiens,9%
same,inhibition,[15],9%
same,inhibition,[16],-3%
same,inhibition,[17],8%
same,inhibition,[18],-5%
same,inhibition,[19],-5%
same,inhibition,[20],3%
same,inhibition,[21],7%
same,inhibition,[22],18%
same,inhibition,[23],2%
